Reference: the supplement of paper PMC10307832

Experiments:
Experiment in all cases: relative viability (nuclei count vs DMSO), 5 days (fraction); higher = more cells survive
ABC-1 = tested on: ABC-1
How it was run: (§1)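 Nuclei were stained with Hoechst during a one-step fixation (final 0.05% Triton X-100, 1% formaldehyde, 1 ug/ml Hoechst) carried out 5 days after dosing, then counted on 4× images. The cells, lung cancer lines in 1536-well plates, had been dosed by pin tool the day after seeding with one drug alone or a fixed anchor-drug dose plus five library-drug doses (not always all listed) in √10 steps. Relative viability is the nuclei count in treated wells divided by that in vehicle wells, and each value is the median of duplicate plates.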

COR-L23 = tested on: COR-L23
How it was run: as §1

ChaGo-K-1 = tested on: ChaGo-K-1
How it was run: as §1

EMC-BAC-2 = tested on: EMC-BAC-2
How it was run: as §1

HARA = tested on: HARA
How it was run: as §1

HCC-15 = tested on: HCC-15
How it was run: as §1

HCC-366 = tested on: HCC-366
How it was run: as §1

HCC-78 = tested on: HCC-78
How it was run: as §1

HOP-62 = tested on: HOP-62
How it was run: as §1

LC-2-ad = tested on: LC-2-ad
How it was run: as §1

NCI-H1395 = tested on: NCI-H1395
How it was run: as §1

NCI-H1793 = tested on: NCI-H1793
How it was run: as §1

NCI-H1944 = tested on: NCI-H1944
How it was run: as §1

NCI-H1993 = tested on: NCI-H1993
How it was run: as §1

NCI-H2023 = tested on: NCI-H2023
How it was run: as §1

NCI-H2126 = tested on: NCI-H2126
How it was run: as §1

NCI-H2228 = tested on: NCI-H2228
How it was run: as §1

NCI-H23 = tested on: NCI-H23
How it was run: as §1

NCI-H2405 = tested on: NCI-H2405
How it was run: as §1

NCI-H358 = tested on: NCI-H358
How it was run: as §1

NCI-H838 = tested on: NCI-H838
How it was run: as §1

SK-LU-1 = tested on: SK-LU-1
How it was run: as §1

Molecule O=c1cc(N2CCOCC2)oc2c(-c3cccc4c3sc3ccccc34)cccc12 + CC(=O)c1c(C)c2cnc(Nc3ccc(N4CCNCC4)cn3)nc2n(C2CCCC2)c1=O [Palbociclib] (partner 0.5 µM) has a relative viability (ABC-1; first compound 0.01 µM) of 0.644, a relative viability (ABC-1; first compound 0.03162 µM) of 0.797 and a relative viability (ABC-1; first compound 0.1 µM) of 0.699. It also gave a relative viability (ABC-1; first compound 0.3162 µM) of 0.619, a relative viability (ABC-1; first compound 1 µM) of 0.578 and a relative viability (COR-L23; first compound 0.01 µM) of 0.289. For the same molecule, the relative viability (COR-L23; first compound 0.03162 µM) was 0.303, the relative viability (COR-L23; first compound 0.1 µM) was 0.317 and the relative viability (COR-L23; first compound 0.3162 µM) was 0.301. It also gave a relative viability (COR-L23; first compound 1 µM) of 0.316, a relative viability (ChaGo-K-1; first compound 0.01 µM) of 0.884 and a relative viability (ChaGo-K-1; first compound 0.03162 µM) of 0.91. The relative viability (ChaGo-K-1; first compound 0.1 µM) was 0.964, the relative viability (ChaGo-K-1; first compound 0.3162 µM) was 0.947 and the relative viability (ChaGo-K-1; first compound 1 µM) was 0.954. The relative viability (EMC-BAC-2; first compound 0.01 µM) was 0.525, the relative viability (EMC-BAC-2; first compound 0.03162 µM) was 0.541 and the relative viability (EMC-BAC-2; first compound 0.1 µM) was 0.55. It also gave a relative viability (EMC-BAC-2; first compound 0.3162 µM) of 0.51, a relative viability (EMC-BAC-2; first compound 1 µM) of 0.497 and a relative viability (HARA; first compound 0.01 µM) of 0.253. It also gave a relative viability (HARA; first compound 0.03162 µM) of 0.252, a relative viability (HARA; first compound 0.1 µM) of 0.201 and a relative viability (HARA; first compound 0.3162 µM) of 0.278. It also gave a relative viability (HARA; first compound 1 µM) of 0.307, a relative viability (HCC-15; first compound 0.01 µM) of 0.73 and a relative viability (HCC-15; first compound 0.03162 µM) of 0.709. It also gave a relative viability (HCC-15; first compound 0.1 µM) of 0.891, a relative viability (HCC-15; first compound 0.3162 µM) of 0.624 and a relative viability (HCC-15; first compound 1 µM) of 0.727. For the same molecule, the relative viability (HCC-366; first compound 0.01 µM) was 0.371, the relative viability (HCC-366; first compound 0.03162 µM) was 0.417 and the relative viability (HCC-366; first compound 0.1 µM) was 0.409. For the same molecule, the relative viability (HCC-366; first compound 0.3162 µM) was 0.367, the relative viability (HCC-366; first compound 1 µM) was 0.382 and the relative viability (HCC-78; first compound 0.01 µM) was 0.493. It also gave a relative viability (HCC-78; first compound 0.03162 µM) of 0.482, a relative viability (HCC-78; first compound 0.1 µM) of 0.437 and a relative viability (HCC-78; first compound 0.3162 µM) of 0.5. For the same molecule, the relative viability (HCC-78; first compound 1 µM) was 0.446, the relative viability (HOP-62; first compound 0.01 µM) was 0.452 and the relative viability (HOP-62; first compound 0.03162 µM) was 0.451. The relative viability (HOP-62; first compound 0.1 µM) was 0.451, the relative viability (HOP-62; first compound 0.3162 µM) was 0.459 and the relative viability (HOP-62; first compound 1 µM) was 0.415. The relative viability (LC-2-ad; first compound 0.01 µM) was 0.504, the relative viability (LC-2-ad; first compound 0.03162 µM) was 0.5 and the relative viability (LC-2-ad; first compound 0.1 µM) was 0.572. For the same molecule, the relative viability (LC-2-ad; first compound 0.3162 µM) was 0.493, the relative viability (LC-2-ad; first compound 1 µM) was 0.554 and the relative viability (NCI-H1395; first compound 0.03162 µM) was 0.547. The relative viability (NCI-H1395; first compound 0.1 µM) was 0.634, the relative viability (NCI-H1395; first compound 0.3162 µM) was 0.631 and the relative viability (NCI-H1395; first compound 1 µM) was 0.637. The relative viability (NCI-H1793; first compound 0.01 µM) was 0.299, the relative viability (NCI-H1793; first compound 0.03162 µM) was 0.295 and the relative viability (NCI-H1793; first compound 0.1 µM) was 0.314. The relative viability (NCI-H1793; first compound 0.3162 µM) was 0.266, the relative viability (NCI-H1793; first compound 1 µM) was 0.234 and the relative viability (NCI-H1944; first compound 0.01 µM) was 0.331. The relative viability (NCI-H1944; first compound 0.03162 µM) was 0.332, the relative viability (NCI-H1944; first compound 0.1 µM) was 0.363 and the relative viability (NCI-H1944; first compound 0.3162 µM) was 0.338. It also gave a relative viability (NCI-H1944; first compound 1 µM) of 0.32, a relative viability (NCI-H1993; first compound 0.01 µM) of 0.738 and a relative viability (NCI-H1993; first compound 0.03162 µM) of 0.6. For the same molecule, the relative viability (NCI-H1993; first compound 0.1 µM) was 0.658, the relative viability (NCI-H1993; first compound 0.3162 µM) was 0.64 and the relative viability (NCI-H1993; first compound 1 µM) was 0.545. It also gave a relative viability (NCI-H2023; first compound 0.01 µM) of 0.436, a relative viability (NCI-H2023; first compound 0.03162 µM) of 0.325 and a relative viability (NCI-H2023; first compound 0.1 µM) of 0.462. It also gave a relative viability (NCI-H2023; first compound 0.3162 µM) of 0.337, a relative viability (NCI-H2023; first compound 1 µM) of 0.346 and a relative viability (NCI-H2126; first compound 0.01 µM) of 0.349. For the same molecule, the relative viability (NCI-H2126; first compound 0.03162 µM) was 0.339, the relative viability (NCI-H2126; first compound 0.1 µM) was 0.318 and the relative viability (NCI-H2126; first compound 0.3162 µM) was 0.331. It also gave a relative viability (NCI-H2126; first compound 1 µM) of 0.345, a relative viability (NCI-H2228; first compound 0.01 µM) of 0.943 and a relative viability (NCI-H2228; first compound 0.03162 µM) of 0.749. It also gave a relative viability (NCI-H2228; first compound 0.1 µM) of 0.802, a relative viability (NCI-H2228; first compound 0.3162 µM) of 0.683 and a relative viability (NCI-H2228; first compound 1 µM) of 0.83. For the same molecule, the relative viability (NCI-H23; first compound 0.01 µM) was 0.464, the relative viability (NCI-H23; first compound 0.03162 µM) was 0.524 and the relative viability (NCI-H23; first compound 0.3162 µM) was 0.485. It also gave a relative viability (NCI-H23; first compound 1 µM) of 0.473, a relative viability (NCI-H2405; first compound 0.01 µM) of 0.566 and a relative viability (NCI-H2405; first compound 0.03162 µM) of 0.542. It also gave a relative viability (NCI-H2405; first compound 0.1 µM) of 0.531, a relative viability (NCI-H2405; first compound 0.3162 µM) of 0.513 and a relative viability (NCI-H2405; first compound 1 µM) of 0.527. It also gave a relative viability (NCI-H358; first compound 0.01 µM) of 0.163, a relative viability (NCI-H358; first compound 0.03162 µM) of 0.127 and a relative viability (NCI-H358; first compound 0.1 µM) of 0.132. For the same molecule, the relative viability (NCI-H358; first compound 0.3162 µM) was 0.133, the relative viability (NCI-H358; first compound 1 µM) was 0.126 and the relative viability (NCI-H838; first compound 0.01 µM) was 0.26. It also gave a relative viability (NCI-H838; first compound 0.03162 µM) of 0.182, a relative viability (NCI-H838; first compound 0.1 µM) of 0.222 and a relative viability (NCI-H838; first compound 0.3162 µM) of 0.228. For the same molecule, the relative viability (NCI-H838; first compound 1 µM) was 0.202, the relative viability (SK-LU-1; first compound 0.01 µM) was 0.473 and the relative viability (SK-LU-1; first compound 0.03162 µM) was 0.425. The relative viability (SK-LU-1; first compound 0.1 µM) was 0.368, the relative viability (SK-LU-1; first compound 0.3162 µM) was 0.391 and the relative viability (SK-LU-1; first compound 1 µM) was 0.347.
